Measurements taken from patent publication US9198909B1, “Materials and methods for inhibiting mamalian S-nitrosoglutathione reductase” (Indiana University Research and Technology Corporation, priority 2007, dated 2015).
Each block holds one molecule with its values, some of them ahead of it.

Legend:
[1] = biological target: T1, GSNOR (Homo sapiens, UniProt P11766); test: GSNOR substrate kinetics with octanol; assay type: biochemical; settings: octanol versus GSNO
Experimental: GSNOR is an alcohol dehydrogenases and like other members of ADH family, is capable of oxidizing and reducing primary alcohols and aldehydes with the help of a molecule of NAD(H). Octanol was chosen as the substrate in the initial screening assay as it is bulky like GSNO, but has 200-fold higher KM value (1 mM) and a kcat value (200 min-1) that is more than 2 order of magnitude lower than that of GSNO. This allows the initial velocity conditions to prevail for a period up to 10 min (data not shown) and it enables conducting a large number of concurrent assays in a384 well plate format. The pH of the assay was adjusted to pH 10 in order to get significant rate of oxidation of octanol in the absence of compounds. The screening for GSNOR inhibitors was performed in the presence of saturating concentration of NAD^+ and an un-saturating concentration of octanol thereby increase the probability of identifying compounds that bind, only or primarily in the GSNO binding site of GSNOR. This was deemed desirable as there are many dehydrogenases inside the cells and compounds binding in the coenzyme binding site are more likely to be nonspecific inhibitors of GSNOR, than compounds that bind primarily to the form of GSNOR that binds GSNO.
Target sequence in this assay (P11766 whole entry): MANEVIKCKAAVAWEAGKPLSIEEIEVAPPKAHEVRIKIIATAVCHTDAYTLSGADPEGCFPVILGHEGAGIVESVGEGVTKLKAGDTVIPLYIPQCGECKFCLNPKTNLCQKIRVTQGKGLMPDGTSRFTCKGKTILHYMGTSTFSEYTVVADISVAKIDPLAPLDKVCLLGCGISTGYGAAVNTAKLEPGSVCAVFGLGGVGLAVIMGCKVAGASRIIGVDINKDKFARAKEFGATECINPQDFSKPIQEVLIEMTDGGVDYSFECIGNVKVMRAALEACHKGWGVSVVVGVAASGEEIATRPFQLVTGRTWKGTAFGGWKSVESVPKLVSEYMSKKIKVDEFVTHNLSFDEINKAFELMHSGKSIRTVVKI

[2] = test system: RAW 264.7 cells; test: Nitroso species accumulation in RAW 264.7 cells (triiodide chemiluminescence); assay type: cell-based, rat
Experimental: Referring now to FIG. 3, briefly, RAW 264.7 cells were incubated with 500 μM GSNO alone (γ) or in presence of 33 μM Compound 6 (◯) or 7 (Δ) or 8 (▪). At indicated times or at 4 hr (in case of B), the cells were lysed and the lysate was analyzed for protein and nitroso species concentration by Bradford and chemiluminescence assay, respectively. For details, see Materials and methods. Data represents mean±SE (n=3−12).
RAW 264.7 cells were cultured in DMEM medium supplemented with 10% FBS, 200 U/ml of penicillin and 200 μg/mL of streptomycin. The cells were incubated at 37° C. in an atmosphere containing 5% CO2 and 95% air. For the experiments, 1-2×10^6 cells were plated in six-well plates a day before the experiment. On the day of the assay the medium was replaced with 3 ml of fresh medium and the cells were treated with compounds for a predetermined length of time. Following the incubation period, the cells were washed three times with PBS and scraped off the plate in 250 μl of lysis buffer (50 mM potassium phosphate pH 7.0 containing 50 mM NEM and 1 mM EDTA). Cells were lysed by sonication using a micro tip probe (three pulses of 30% duty cycle; 2 output control on a Fisher Sonicator). Cell debris was pelleted by centrifugation (10 min at 16,000 g) and the cell lysate was analyzed for protein concentration using the Bio-Rad dye-binding protein assay. The concentration of nitroso compounds in the cell lysate was determined using the triiodide based chemiluminescence method using a Sievers 280 nitric oxide analyzer. Briefly, cell lysates were treated with 15% v/v of a sulfanilamide solution (5% w/v in 0.2 M HCl) and kept at room temperature for 5 min to remove nitrite. The triodide mixture was prepared fresh every day as described earlier and kept at 60° C. in the reaction vessel. The concentration of nitroso species was derived from a standard curve generated using GSNO. For determining the amount of the small size nitroso compounds in the cell lysate, a 5 kDa-cutoff Amicon ultra filtration unit was used according to the supplier's instructions. The amount of s-nitrosothiols in the cell lysate was determined by treating initially passing the cell lysate through a microspin column and treating the eluate with 5 mM HgCl2 before determining the nitroso compound concentration using chemiluminescence. For some experiments the cells were pretreated with the compounds for 16 hours prior to the day of experiment.

[3] = biological target: T2, GSNOR•NADH complex (Homo sapiens, UniProt P11766); settings: alcohol substrate, abortive ternary complex; read-out: dissociation constant for the GSNOR•NADH complex; cited from earlier work
T2 construct: made in house; host or cells: E. coli
T2 sequence (P11766 2-374 limits assumed, one chain of several): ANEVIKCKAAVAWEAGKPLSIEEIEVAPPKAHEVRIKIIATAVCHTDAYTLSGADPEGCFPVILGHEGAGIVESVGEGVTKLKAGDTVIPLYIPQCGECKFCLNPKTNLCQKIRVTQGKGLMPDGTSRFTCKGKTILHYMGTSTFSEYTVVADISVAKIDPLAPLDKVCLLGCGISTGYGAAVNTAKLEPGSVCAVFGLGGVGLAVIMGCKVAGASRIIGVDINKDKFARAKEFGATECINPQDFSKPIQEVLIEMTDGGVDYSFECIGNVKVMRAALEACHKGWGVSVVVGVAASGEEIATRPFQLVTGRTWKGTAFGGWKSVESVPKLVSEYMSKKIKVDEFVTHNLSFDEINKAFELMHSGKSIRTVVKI

[4] = biological target: T1, GSNOR; test: ADH isozyme selectivity study: GSNOR; assay type: biochemical; parameters: made in house; host or cells: E. coli; settings: about 5 μM inhibitor, pH 7.5
Experimental: (§1) Referring now to Table 2, briefly inhibition studies were performed in presence or absence of about 5 μM inhibitor. These studies were carried out at 25° C. in 50 mM potassium phosphate pH 7.5 including 0.1 mM EDTA. The enzymes activities were measured by following the changes in absorbance at 340 nm. The values show the percent reduction in the enzyme activity (from a minimum of two measurements) caused by the inhibitor. […] Studies with β2β2-, σσ-, π-ADH and involving compounds 5-8 were performed in 0.05% DMSO. Studies with GSNOR were performed in presence of 1% DMSO, except when compound 4 was the inhibitor. Studies with compound 4 were performed in 0.36% DMSO. DMSO at 0.36% inhibited β2β2-, σσ-, and π-ADH by 24, 18, and 9%, respectively. Studies with β2β2-ADH involved adding 3.5 μg of the enzyme to the assay mixture including 2 mM NAD^+, 1 mM ethanol and the inhibitor.
Studies with σσ-ADH involved adding 0.5 μg of enzyme to the assay mixture containing 2 mM NAD^+, 30 mM ethanol and the inhibitor. Studies with π-ADH involved adding 19.5 μg of the enzyme to the assay mixture including 1 mM NAD^+, 35 mM ethanol and the inhibitor. Studies with GSNOR involved adding 0.1 μg of the enzyme to an assay mixture including 15 μM NADH, 5 μM GSNO and the inhibitor.
Target sequence in this assay (P11766 2-374 limits assumed): as the sequence (P11766 2-374 limits assumed, one chain of several) above

[5] = biological target: T3, σ-ADH (Homo sapiens, UniProt P40394); test: ADH isozyme selectivity study: σ-ADH; assay type: biochemical; settings: about 5 μM inhibitor, pH 7.5, 2 mM NAD+, 30 mM ethanol
T3 construct: made in house; host or cells: E. coli
T3 sequence (P40394 whole entry): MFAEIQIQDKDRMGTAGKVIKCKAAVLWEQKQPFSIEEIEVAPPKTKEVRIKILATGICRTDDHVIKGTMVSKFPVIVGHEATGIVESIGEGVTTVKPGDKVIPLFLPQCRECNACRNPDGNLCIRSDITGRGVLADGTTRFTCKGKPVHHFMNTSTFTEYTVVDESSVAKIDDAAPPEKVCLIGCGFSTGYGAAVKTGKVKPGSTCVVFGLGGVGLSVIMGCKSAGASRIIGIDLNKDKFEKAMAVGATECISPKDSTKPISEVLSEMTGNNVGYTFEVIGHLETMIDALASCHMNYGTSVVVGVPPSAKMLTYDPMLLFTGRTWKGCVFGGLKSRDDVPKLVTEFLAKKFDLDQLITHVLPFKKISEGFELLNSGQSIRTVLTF
Experimental: as §1
(§2) Studies with σσ-ADH involved adding 0.5 μg of enzyme to the assay mixture containing 2 mM NAD^+, 30 mM ethanol and the inhibitor. Studies with π-ADH involved adding 19.5 μg of the enzyme to the assay mixture including 1 mM NAD^+, 35 mM ethanol and the inhibitor. […]
(§3) Inhibition of the β2β2-, π-, and σ-ADH was evaluated by determining the inhibitory effect of GSNOR inhibitors on the rate of oxidation of ethanol by each of these ADH isozymes. […]

[6] = biological target: T1, GSNOR; test: Dead-end inhibition studies of GSNOR; assay type: biochemical; parameters: made in house; host or cells: E. coli; settings: pH 7.5, 25° C., GSNO held at 10 μM
Experimental: Referring now to Table 3, inhibition experiments were performed at 25° C. in 50 mM potassium phosphate (pH 7.5) including 0.1 mM EDTA. A minimum of five concentrations of the varied substrate and three inhibitor concentrations were used for each experiment. NADH and GSNO concentrations were held at 15 or 10 μM, respectively when present as a constant substrate in the assay. The Kis and Kii values are respectively the slope and intercept inhibition constants and are listed along with their associated standard errors. All data were fit to a competitive (C), noncompetitive (NC), or uncompetitive (UC) inhibition models. The type of inhibition shown in the table represents the best fit of the data to the given model as judged from F statistics analysis. […] The dissociation constant was measured at 25° C. in 50 mM potassium phosphate pH 7.5. Each KD value is an average of three independent experiments and is shown with the associated standard error.
Inhibition experiments with the GSNOR inhibitors were conducted at 25° C. in 3 ml of 50 mM potassium phosphate (pH 7.5) containing 0.1 mM EDTA. […] A minimum of three inhibitor concentrations were used in these assays and the rate of NADH and GSNO consumption was determined spectrophotometrically by following change in absorbance at 340 nm. […]
Target sequence in this assay (P11766 2-374 limits assumed): as the sequence (P11766 2-374 limits assumed, one chain of several) above

[7] = biological target: T2, GSNOR•NADH complex; test: Fluorescence equilibrium binding to GSNOR•NADH complex; settings: 1.7 μM NADH, 2 μM GSNOR, 50 μM compound 8
Experimental: Referring now to FIG. 2, (A) Changes in the fluorescence of NADH (curve a) upon sequential addition of GSNOR (curve b) and compound 8 (curve c). To a solution of 1.7 μM NADH were added 2 μM GSNOR and 50 μM compound 8 in sequence and the fluorescence of the solution measured each time (λexc=350 nm; λemm=375-550 nm); (B) Changes in the fluorescence of NADH (curve a) upon sequential addition of GSNOR (curve b), 12-HDDA (curve c) and compound 8 (curve d). To a solution of 1.7 μM NADH were added 2 μM GSNOR, 810 μM 12-HDDA and 50 μM compound 8 in sequence and the fluorescence measured each time (λexc=350 nm; λemm=375-550 nm); (C) Binding of compound 8 to GSNOR•NADH complex. The change in fluorescence of a 1.7 μM NADH and 2 μM GSNOR mixture (λexc=350 nm; λemm=455 nm) with increasing concentrations of compound 8 was fitted to a single site binding model (equation 1; see materials and methods) using the Graphpad Prizm 4. All of the fluorescence studies were conducted at room temperature in 50 mM potassium phosphate pH 7.5.
Referring now to Table 3, inhibition experiments were performed at 25° C. in 50 mM potassium phosphate (pH 7.5) including 0.1 mM EDTA. […] The dissociation constant was measured at 25° C. in 50 mM potassium phosphate pH 7.5. […]
Fluorescence studies were conducted in 50 mM potassium phosphate pH 7.5, at room temperature using a Fluoromax-2 fluorescence spectrometer (Instruments S.A., Inc., Edison, N.J.). The equilibrium dissociation constant of GSNOR inhibitors was determined by measuring the changes in the fluorescence of GSNOR bound NADH (λexc=350 nm; λemm=455 nm) upon the addition of inhibitor. […] The decrease in fluorescence at 455 nm with each addition of inhibitor was plotted against the final concentration of inhibitor and the data were fitted to equation 1 using nonlinear regression to obtain the dissociation constant of the inhibitor for GSNOR-NADH complex,
[formula] In equation 1, ΔF is the change in the fluorescence at 455 nm upon the addition of inhibitor. ΔFM is the maximum fluorescence change that was obtained from curve fitting. […]

[8] = biological target: T4, π-ADH (Homo sapiens, UniProt P08319); test: ADH isozyme selectivity study: π-ADH; assay type: biochemical; settings: about 5 μM inhibitor, pH 7.5, 1 mM NAD+, 35 mM ethanol
T4 construct: made in house; host or cells: E. coli
T4 sequence (P08319 whole entry): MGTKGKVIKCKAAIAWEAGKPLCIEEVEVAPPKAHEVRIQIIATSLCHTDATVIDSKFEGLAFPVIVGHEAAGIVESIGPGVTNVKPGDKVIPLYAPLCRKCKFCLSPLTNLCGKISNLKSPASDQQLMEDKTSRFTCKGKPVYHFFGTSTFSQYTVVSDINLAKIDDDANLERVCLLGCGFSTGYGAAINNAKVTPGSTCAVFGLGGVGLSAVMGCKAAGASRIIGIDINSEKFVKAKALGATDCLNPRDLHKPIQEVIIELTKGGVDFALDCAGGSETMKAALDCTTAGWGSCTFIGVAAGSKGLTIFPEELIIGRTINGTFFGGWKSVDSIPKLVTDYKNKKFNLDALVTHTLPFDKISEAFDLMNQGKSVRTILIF
Experimental: as §1, §2, §3

[9] = biological target: T1, GSNOR; test: GSNOR inhibition at pH 7.5 (GSNO, NADH); assay type: biochemical; parameters: made in house; host or cells: E. coli; settings: Table 1; pH not stated
Experimental: Referring now to Table 1, inhibition was studied at pH 10. These assays were performed in 0.1 M sodium glycine containing 1 mM octanol, 1 mM NAD^+, 0.1 mM EDTA and 50 μM inhibitor. Inhibition studies at pH 7.5 were performed in 50 mM potassium phosphate pH 7.5 that included 15 μM NADH, 10 μM GSNO, 0.1 mM EDTA and 50 μM inhibitor. The data file to a model consisted with partial inhibition and a hill coefficient of 2.4 in the inhibition curve. The screening for GSNOR inhibitors was performed using a library of 60,000 compounds from ChemDiv Inc in the Chemical Genomics Core facility at Indiana University. Screening was conducted in 384 well plates and involved incubating GSNOR with 12.5 μM compound, 1 mM each of NAD^+ and octanol in 0.1 M sodium glycine pH 10. Enzyme activity was determined by measuring the rate of production of NADH spectrophotometrically at 340 nm. Inhibition of GSNOR was calculated from the ratio of enzyme activity in the presence of compounds to that in no compound controls performed on the same assay plate. Following their identification from the high-throughput screening, the GSNOR inhibitory properties of the initial hits were confirmed at the pH 10 using 12-hydroxydodecanoic acid as the substrate and at pH 7.5 using GSNO as the substrate (see the brief description of Table 1 for details on how the assay was carried out.)
Target sequence in this assay (P11766 2-374 limits assumed): as the sequence (P11766 2-374 limits assumed, one chain of several) above

[10] = biological target: T1, GSNOR; settings: read-out: KD of NADH for GSNOR; cited from earlier work
Target sequence in this assay (P11766 whole entry): as the sequence (P11766 whole entry) above

KM value, fold higher than GSNO [1]: 200 fold
SMILES: CCCCCCCCO [octanol]

SMILES: N[C@@H](CCC(=O)N[C@@H](CSN=O)C(=O)NCC(=O)O)C(=O)O [GSNO, s-nitrosoglutathione]
buildup of nitrosylated compounds in cells ([2]; 500 μM GSNO alone): significant buildup | time to equilibrium level of nitrosylated compounds ([2]; 500 μM GSNO alone): ≤ 1 h

SMILES: O=C(O)CCCCCCCCCCCO [Compound 12-HDDA, 12-hydroxydodecanoic acid]
Kd [3]: 170 µM

inhibition of GSNOR (in words) [4]: modestly good inhibitor | inhibition of σ-ADH [5]: significant inhibition
SMILES: CC(=O)Oc1ccc(C2Nc3ccc(C(=O)O)cc3C3C=CCC32)c(OC(C)=O)c1 (stereo not shown) [Compound 5]

type of inhibition against varied NADH [6]: uncompetitive
SMILES: CC(=O)c1ccc(-n2c(CCC(=O)O)ccc2-c2ccccc2)cc1 [Compound 6]
effect on fluorescence of GSNOR bound NADH [7]: quenched the NADH fluorescence | nitrosylation, fold higher than Compound 7 ([2]; 33 μM initial concentration, 500 μM GSNO, 4 hr): 3 fold | decrease in nitrosylated species relative to amounts at 4 hours ([2]; exposure up to 24 hours, data not shown): 80%

inhibition of π-ADH [8]: inhibited π-ADH more than GSNOR
SMILES: Cc1ccc(C)c(-c2csc(-c3cc4ccc(O)cc4oc3=O)n2)c1 [Compound 4]

inhibition of GSNOR compared with compound 5 (ester) [9]: three fold higher inhibition
SMILES: O=C(O)c1ccc2c(c1)C1C=CCC1C(c1ccc(O)cc1O)N2 (stereo not shown) [hydrolyzed form of compound 5]

SMILES: NC(=O)C1=CN([C@@H]2O[C@H](COP(=O)(O)OP(=O)(O)OC[C@H]3O[C@@H](n4cnc5c(N)ncnc54)[C@H](O)[C@@H]3O)[C@@H](O)[C@H]2O)C=CC1 [NADH]
Kd [10]: 0.05 µM
